These results are taken from ChEMBL document CHEMBL4371090, “Chemical Synthesis Study Establishes the Correct Structure of the Potent Anti-Inflammatory Agent Myrsinoic Acid F” (J Nat Prod, 2019).

Activity calls are given as the source filed them. The calls are words filed in the database; no cut-off is given here.

The subject of this assay is Mus musculus. The assay is described as follows: Anti-inflammatory activity in TPA-induced mouse ear edema model assessed as inhibition of ear swelling at 0.6 to 1.4 umol applied topically on ear pretreated for 0.5 hrs followed by TPA application and measured after 7 hrs. Format: functional, organism-based.
For the molecule `COc1ccc2c(c1)c(CC(=O)O)c(C)n2C(=O)c1ccc(Cl)cc1`, the inhibition result is “Active”.

As for `CC(C)=CC/C=C(\C)C(O)Cc1cc(C(=O)O)cc(CC=C(C)C)c1O` (stereo not drawn), the inhibition result was “Active”. In the case of `CC(C)=CC/C=C(\C)C(O)Cc1cc(Br)cc(CC=C(C)C)c1O` (stereo not drawn), the inhibition entry is “Active”.
